These are literature values, as cited in patent US7439256B2, “(Arylamidoaryl) cyanoguanidine compounds” (priority 2004, dated 2008).

Structures can show the parent of a compound that is named as a salt.

For the data set, the system named is MO7e human leukemia cells.

On to `Cc1ccc(NC(=O)c2ccc(CN3CCN(C)CC3)cc2)cc1Nc1nccc(-c2cccnc2)n1` [Gleevec, imatinib mesylate], for which the “GM-CSF stimulated growth of MO7e human leukemia cells” value (GM-CSF stimulated) is recorded as “not affected”. In addition, for the setting “Kit ligand-stimulated”, the “Kit ligand-stimulated growth of MO7e human leukemia cells” value is reported as “inhibited”. Further, for the setting “Kit ligand-stimulated conditions”, the “apoptosis in MO7e human leukemia cells” value is on record as “induces apoptosis”.
